Our source for the Activity, EC50 and Tm values is ChEMBL document CHEMBL3390848, “Affinity selection and sequence-activity relationships of HIV-1 membrane fusion inhibitors directed at the drug-resistant variants” (Medchemcomm, 2010).

Residues, ends and D or L forms follow the SMILES beside them.

Usually EC50 stands for the concentration needed to bring the measured effect to its halfway point. What is called Tm is the temperature at which the thermal transition is half complete.

The test system of test [1] is Human immunodeficiency virus 1. Put plainly: Binding affinity to HIV1 His-tagged N-terminal heptad repeat of envelope glycoprotein gp41 assessed as recovery of N54-drug complex after 2 hrs by LC-MS analysis. Details: concentration or dose not given beside the values.
For test [2], the system named is Human immunodeficiency virus 1. Put plainly: Antiviral activity against HIV1 NL4-3 harboring gp41 D36G mutant infected in human HeLa cells expressing CD4-LTR-beta-gal assessed as inhibition of viral replication after 48 hrs by MAGI assay. The format is functional, organism-based.
Test [3] relates to Human immunodeficiency virus 1. As to the kind of experiment: Thermal stability of HIV1 envelope glycoprotein gp41 His-tagged N-terminal heptad repeat N54-drug complex assessed as thermal unfolding transition state by measuring molar ellipticity at 4 to 90 degC by circular dichroic spectra analysis.

`CC[C@H](C)[C@H](NC(=O)[C@H](CC(C)C)NC(=O)[C@H](CCC(=O)O)NC(=O)[C@H](CCC(=O)O)NC(=O)[C@@H](NC(=O)[C@H](CC(C)C)NC(=O)[C@H](CO)NC(=O)[C@@H](NC(=O)[C@H](Cc1ccc(O)cc1)NC(C)=O)[C@@H](C)O)[C@@H](C)CC)C(=O)N[C@@H](CCCCN)C(=O)N[C@@H](CCCCN)C(=O)N[C@@H](CO)C(=O)N[C@@H](CCC(=O)O)C(=O)N[C@@H](CCC(=O)O)C(=O)N[C@@H](CC(C)C)C(=O)N[C@@H](CCC(N)=O)C(=O)N[C@@H](CCCCN)C(=O)N[C@@H](CCCCN)C(=O)N[C@@H](CC(N)=O)C(=O)N[C@@H](CCC(=O)O)C(=O)N[C@@H](CCC(=O)O)C(=O)N[C@@H](CCC(=O)O)C(=O)N[C@@H](CC(C)C)C(=O)N[C@@H](CCCCN)C(=O)N[C@@H](CCCCN)C(=O)N[C@@H](CC(C)C)C(=O)N[C@@H](CCC(=O)O)C(=O)N[C@@H](CCC(=O)O)C(=O)N[C@@H](Cc1c[nH]c2ccccc12)C(=O)N[C@@H](C)C(=O)N[C@@H](CCCCN)C(=O)N[C@@H](CCCCN)C(=O)N[C@@H](Cc1c[nH]c2ccccc12)C(=O)N[C@@H](CC(N)=O)C(=O)N[C@@H](Cc1c[nH]c2ccccc12)C(=O)N[C@@H](Cc1ccccc1)C(N)=O` (Ac-YTSLIEELIKKSEELQKKNEEELKKLEEWAKKWNWF-NH2): in test [1], the Activity was found to be 10.4%. The EC50 in test [2] was 0.5 nM. Further, the Tm in test [3] came out at 77.4 °C.
Turning to `CC[C@H](C)[C@H](NC(=O)[C@H](CC(C)C)NC(=O)[C@H](CCC(=O)O)NC(=O)[C@H](CCC(=O)O)NC(=O)[C@@H](NC(=O)[C@H](CC(C)C)NC(=O)[C@H](CO)NC(=O)[C@@H](NC(=O)[C@H](Cc1ccc(O)cc1)NC(C)=O)[C@@H](C)O)[C@@H](C)CC)C(=O)N[C@@H](CCCCN)C(=O)N[C@@H](CCCCN)C(=O)N[C@@H](CO)C(=O)N[C@@H](CCC(=O)O)C(=O)N[C@@H](CCC(=O)O)C(=O)N[C@@H](CCSC)C(=O)N[C@@H](CCC(N)=O)C(=O)N[C@@H](CCCCN)C(=O)N[C@@H](CCCCN)C(=O)N[C@@H](CC(N)=O)C(=O)N[C@@H](CCC(=O)O)C(=O)N[C@@H](CCC(=O)O)C(=O)N[C@@H](CCC(=O)O)C(=O)N[C@@H](CC(C)C)C(=O)N[C@@H](CCCCN)C(=O)N[C@@H](CCCCN)C(=O)N[C@@H](CC(C)C)C(=O)N[C@@H](CCC(=O)O)C(=O)N[C@@H](CCC(=O)O)C(=O)N[C@@H](Cc1c[nH]c2ccccc12)C(=O)N[C@@H](C)C(=O)N[C@@H](CCCCN)C(=O)N[C@@H](CCCCN)C(=O)N[C@@H](Cc1c[nH]c2ccccc12)C(=O)N[C@@H](CC(N)=O)C(=O)N[C@@H](Cc1c[nH]c2ccccc12)C(=O)N[C@@H](Cc1ccccc1)C(N)=O` (Ac-YTSLIEELIKKSEEMQKKNEEELKKLEEWAKKWNWF-NH2), the Activity in test [1] was found to be 9.2%. For the same compound, the EC50 in test [2] came to 0.9 nM. Besides, the Tm in test [3] turned out to be 74.6 °C.
Turning to `CC[C@H](C)[C@H](NC(=O)[C@H](CC(C)C)NC(=O)[C@H](CCC(=O)O)NC(=O)[C@H](CCC(=O)O)NC(=O)[C@@H](NC(=O)[C@H](CC(C)C)NC(=O)[C@H](CO)NC(=O)[C@@H](NC(=O)[C@H](Cc1ccc(O)cc1)NC(C)=O)[C@@H](C)O)[C@@H](C)CC)C(=O)N[C@@H](CCCCN)C(=O)N[C@@H](CCCCN)C(=O)N[C@@H](CO)C(=O)N[C@@H](CCC(=O)O)C(=O)N[C@@H](CCC(=O)O)C(=O)N[C@H](C(=O)N[C@@H](CCC(N)=O)C(=O)N[C@@H](CCCCN)C(=O)N[C@@H](CCCCN)C(=O)N[C@@H](CC(N)=O)C(=O)N[C@@H](CCC(=O)O)C(=O)N[C@@H](CCC(=O)O)C(=O)N[C@@H](CCC(=O)O)C(=O)N[C@@H](CC(C)C)C(=O)N[C@@H](CCCCN)C(=O)N[C@@H](CCCCN)C(=O)N[C@@H](CC(C)C)C(=O)N[C@@H](CCC(=O)O)C(=O)N[C@@H](CCC(=O)O)C(=O)N[C@@H](Cc1c[nH]c2ccccc12)C(=O)N[C@@H](C)C(=O)N[C@@H](CCCCN)C(=O)N[C@@H](CCCCN)C(=O)N[C@@H](Cc1c[nH]c2ccccc12)C(=O)N[C@@H](CC(N)=O)C(=O)N[C@@H](Cc1c[nH]c2ccccc12)C(=O)N[C@@H](Cc1ccccc1)C(N)=O)[C@@H](C)O` (Ac-YTSLIEELIKKSEETQKKNEEELKKLEEWAKKWNWF-NH2), in test [1], the Activity worked out at 6.9%. For the same compound, the EC50 in test [2] is 2.1 nM. Further, in test [3], the Tm worked out at 71.6 °C.
`CC[C@H](C)[C@H](NC(=O)[C@H](CC(C)C)NC(=O)[C@H](CCC(=O)O)NC(=O)[C@H](CCC(=O)O)NC(=O)[C@@H](NC(=O)[C@H](CC(C)C)NC(=O)[C@H](CO)NC(=O)[C@@H](NC(=O)[C@H](Cc1ccc(O)cc1)NC(C)=O)[C@@H](C)O)[C@@H](C)CC)C(=O)N[C@@H](CCCCN)C(=O)N[C@@H](CCCCN)C(=O)N[C@@H](CO)C(=O)N[C@@H](CCC(=O)O)C(=O)N[C@@H](CCC(=O)O)C(=O)N[C@@H](CCC(=O)O)C(=O)N[C@@H](CCC(N)=O)C(=O)N[C@@H](CCCCN)C(=O)N[C@@H](CCCCN)C(=O)N[C@@H](CC(N)=O)C(=O)N[C@@H](CCC(=O)O)C(=O)N[C@@H](CCC(=O)O)C(=O)N[C@@H](CCC(=O)O)C(=O)N[C@@H](CC(C)C)C(=O)N[C@@H](CCCCN)C(=O)N[C@@H](CCCCN)C(=O)N[C@@H](CC(C)C)C(=O)N[C@@H](CCC(=O)O)C(=O)N[C@@H](CCC(=O)O)C(=O)N[C@@H](Cc1c[nH]c2ccccc12)C(=O)N[C@@H](C)C(=O)N[C@@H](CCCCN)C(=O)N[C@@H](CCCCN)C(=O)N[C@@H](Cc1c[nH]c2ccccc12)C(=O)N[C@@H](CC(N)=O)C(=O)N[C@@H](Cc1c[nH]c2ccccc12)C(=O)N[C@@H](Cc1ccccc1)C(N)=O` (Ac-YTSLIEELIKKSEEEQKKNEEELKKLEEWAKKWNWF-NH2): the Activity in test [1] came out at 8.2%. Also, the EC50 in test [2] is 3.8 nM. For the same compound, the Tm in test [3] was found to be 71.8 °C.
For the compound `CC[C@H](C)[C@H](NC(=O)[C@H](CC(C)C)NC(=O)[C@H](CCC(=O)O)NC(=O)[C@H](CCC(=O)O)NC(=O)[C@@H](NC(=O)[C@H](CC(C)C)NC(=O)[C@H](CO)NC(=O)[C@@H](NC(=O)[C@H](Cc1ccc(O)cc1)NC(C)=O)[C@@H](C)O)[C@@H](C)CC)C(=O)N[C@@H](CCCCN)C(=O)N[C@@H](CCCCN)C(=O)N[C@@H](Cc1ccc(O)cc1)C(=O)N[C@@H](CCC(=O)O)C(=O)N[C@@H](CCC(=O)O)C(=O)N[C@@H](CCC(N)=O)C(=O)N[C@@H](CCC(N)=O)C(=O)N[C@@H](CCCCN)C(=O)N[C@@H](CCCCN)C(=O)N[C@@H](CC(N)=O)C(=O)N[C@@H](CCC(=O)O)C(=O)N[C@@H](CCC(=O)O)C(=O)N[C@@H](CCC(=O)O)C(=O)N[C@@H](CC(C)C)C(=O)N[C@@H](CCCCN)C(=O)N[C@@H](CCCCN)C(=O)N[C@@H](CC(C)C)C(=O)N[C@@H](CCC(=O)O)C(=O)N[C@@H](CCC(=O)O)C(=O)N[C@@H](Cc1c[nH]c2ccccc12)C(=O)N[C@@H](C)C(=O)N[C@@H](CCCCN)C(=O)N[C@@H](CCCCN)C(=O)N[C@@H](Cc1c[nH]c2ccccc12)C(=O)N[C@@H](CC(N)=O)C(=O)N[C@@H](Cc1c[nH]c2ccccc12)C(=O)N[C@@H](Cc1ccccc1)C(N)=O` (Ac-YTSLIEELIKKYEEQQKKNEEELKKLEEWAKKWNWF-NH2), in test [1], the Activity was 4.7%. Also, in test [2], the EC50 was determined as 5 nM. In addition, the Tm in test [3] is 61.1 °C.
On to `CC[C@H](C)[C@H](NC(=O)[C@H](CC(C)C)NC(=O)[C@H](CCC(=O)O)NC(=O)[C@H](CCC(=O)O)NC(=O)[C@@H](NC(=O)[C@H](CC(C)C)NC(=O)[C@H](CO)NC(=O)[C@@H](NC(=O)[C@H](Cc1ccc(O)cc1)NC(C)=O)[C@@H](C)O)[C@@H](C)CC)C(=O)N[C@@H](CCCCN)C(=O)N[C@@H](CCCCN)C(=O)N[C@@H](CO)C(=O)N[C@@H](CCC(=O)O)C(=O)N[C@@H](CCC(=O)O)C(=O)N[C@@H](CCCNC(=N)N)C(=O)N[C@@H](CCC(N)=O)C(=O)N[C@@H](CCCCN)C(=O)N[C@@H](CCCCN)C(=O)N[C@@H](CC(N)=O)C(=O)N[C@@H](CCC(=O)O)C(=O)N[C@@H](CCC(=O)O)C(=O)N[C@@H](CCC(=O)O)C(=O)N[C@@H](CC(C)C)C(=O)N[C@@H](CCCCN)C(=O)N[C@@H](CCCCN)C(=O)N[C@@H](CC(C)C)C(=O)N[C@@H](CCC(=O)O)C(=O)N[C@@H](CCC(=O)O)C(=O)N[C@@H](Cc1c[nH]c2ccccc12)C(=O)N[C@@H](C)C(=O)N[C@@H](CCCCN)C(=O)N[C@@H](CCCCN)C(=O)N[C@@H](Cc1c[nH]c2ccccc12)C(=O)N[C@@H](CC(N)=O)C(=O)N[C@@H](Cc1c[nH]c2ccccc12)C(=O)N[C@@H](Cc1ccccc1)C(N)=O` (Ac-YTSLIEELIKKSEERQKKNEEELKKLEEWAKKWNWF-NH2), for which the Activity in test [1] was 7.2%. For the same compound, the half-maximal effective concentration (EC50) in test [2] came to 1.5 nM. Also, the Tm in test [3] is 68.9 °C.
For `CC[C@H](C)[C@H](NC(=O)[C@H](CC(C)C)NC(=O)[C@H](CCC(=O)O)NC(=O)[C@H](CCC(=O)O)NC(=O)[C@@H](NC(=O)[C@H](CC(C)C)NC(=O)[C@H](CO)NC(=O)[C@@H](NC(=O)[C@H](Cc1ccc(O)cc1)NC(C)=O)[C@@H](C)O)[C@@H](C)CC)C(=O)N[C@@H](CCCCN)C(=O)N[C@@H](CCCCN)C(=O)N[C@@H](CO)C(=O)N[C@@H](CCC(=O)O)C(=O)N[C@@H](CCC(=O)O)C(=O)N[C@@H](CCCCN)C(=O)N[C@@H](CCC(N)=O)C(=O)N[C@@H](CCCCN)C(=O)N[C@@H](CCCCN)C(=O)N[C@@H](CC(N)=O)C(=O)N[C@@H](CCC(=O)O)C(=O)N[C@@H](CCC(=O)O)C(=O)N[C@@H](CCC(=O)O)C(=O)N[C@@H](CC(C)C)C(=O)N[C@@H](CCCCN)C(=O)N[C@@H](CCCCN)C(=O)N[C@@H](CC(C)C)C(=O)N[C@@H](CCC(=O)O)C(=O)N[C@@H](CCC(=O)O)C(=O)N[C@@H](Cc1c[nH]c2ccccc12)C(=O)N[C@@H](C)C(=O)N[C@@H](CCCCN)C(=O)N[C@@H](CCCCN)C(=O)N[C@@H](Cc1c[nH]c2ccccc12)C(=O)N[C@@H](CC(N)=O)C(=O)N[C@@H](Cc1c[nH]c2ccccc12)C(=O)N[C@@H](Cc1ccccc1)C(N)=O` (Ac-YTSLIEELIKKSEEKQKKNEEELKKLEEWAKKWNWF-NH2), in that order: 4.8%, 3.8 nM and 65.3 °C.
